Where two headings read alike, the source gives them in different places.
How the values were obtained:
PilF159-302 Q190E [1] = biological target: T1, PilF159-302 Q190E (Thermus thermophilus, UniProt Q72H73, Q190E); experiment: ITC c-di-GMP binding to Q190E mutant, pH series; conditions: Tris, 20 °C, pH 8.5
T1 sequence (Q72H73 159-302 Q190E): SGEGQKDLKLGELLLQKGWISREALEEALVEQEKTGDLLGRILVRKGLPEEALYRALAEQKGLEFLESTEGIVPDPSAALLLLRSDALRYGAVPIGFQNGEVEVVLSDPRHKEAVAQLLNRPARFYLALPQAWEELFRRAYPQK
Text: (§1) To characterize c-di-GMP binding by PilF159-302, the Q190E and Q218E constructs via isothermal titration calorimetry (ITC) and X-ray crystallography unlabeled c-di-GMP was synthesized using a constitutively active mutant of a diguanylate cyclase from the thermophilic bacterium Thermogata maritima ^[4^4,4^5]. For NMR experiments ^13C,^15N labelled c-di-GMP was synthesized identically using ^13C,^15N labelled GTP as a substrate.
(§2) c-di-GMP binding capabilities of PilF159-302, its mutant constructs PilF159-302 Q190E and PilF159-302 Q218E at varying pH-values were investigated by isothermal titration calorimetry (ITC) experiments in triplicate. All measurements were conducted at 20 °C using a MicroCal ITC200 (Malvern Panalytical, UK). For PilF159-302 Q190E and PilF159-302 Q218E ITC-measurements were conducted in a pH range from pH 8.5 – 4.0 with the buffering agent adjusted to the respective pH-range. For the pH-range 8.5 – 7.5 a sample buffer of 50 mM Tris, 200 mM NaCl and 1 mM β-Me was used. For pH values 7.0 – 6.0 a sample buffer of 50 mM BisTris, 200 mM NaCl, 1 mM β-Me and for pH 5.5 – 4.0 a sample buffer of 50 mM NaAc, 200 mM NaCl, 1 mM β-Me was used. For reference PilF159-302 was titrated with c-di-GMP at pH 8.5 in 50 mM Tris pH 8.5, 200 mM NaCl, 1 mM β-Me and at pH 4.0 in 50 mM NaAc pH 4.0, 200 mM NaCl, 1 mM β-Me. In order to test whether the buffer reagents have an influence on the measured thermodynamic parameters, cross measurements were performed in the region of the pH transitions. To this end, additional measurements with BisTris at pH 7.5 and 5.5, with Tris at pH 7.0 and with NaAc at pH 6.0 were carried out as singlets. The buffer agents had no influence on measured KD-values and resulted only in small changes of the ΔH values. All protein samples were dialyzed two times against 500 ml of the respective sample buffer (1 L in total) at 4 °C for at least 16 hours per step using a dialysis chamber with a nominal 3.5 kDa molecular weight cutoff (ZelluTrans, ROTH). To prepare the ITC-measurements protein and c-di-GMP sample were adjusted to the respective concentration using the dialysis buffer. Protein and c-di-GMP concentration ranged from 20 to 50 µM (protein) and 200 to 500 µM (c-di-GMP) depending on the c-di-GMP binding capabilities at the different pH-values to optimize precision of the measurements. For pH 8.5 – 7.0 a protein concentration of 50 µM with 500 µM c-di-GMP was used. For pH 6.5 – 5.0 a protein concentration of 30 µM with 300 µM c-di-GMP and for pH 4.5 – 4.0 a protein concentration of 20 µM with 200 µM c-di-GMP was used. The following protocol was utilized for each measurement. To 270 µl protein a total of 40 µl c-di-GMP was titrated in 21 injections with a duration of 4 s in intervals of 180 s with a stirring speed of 750 rpm. The first injection of 0.2 µl c-di-GMP with a duration of 0.4 s was carried out after an initial delay of 120 s, which was followed by 20 injections of 2 µl each with a duration of 4 s. During the measurement, the feedback mode was set to high and the reference power to 11 µcal s^-1. All thermograms were processed using Origin 7.0 (OriginLab) using the one-site binding model.

PilF159-221 = system: PilF159-221; parameters: method as in PMID 39615687; conditions: cited from earlier work
PilF159-302 Q190E [2] = biological target: T1, PilF159-302 Q190E; parameters: method as in PMID 39615687; conditions: in vitro, pH 7.5; cited from earlier work
PilF159-302 WT [3] = biological target: T2, PilF159-302 WT (Thermus thermophilus, UniProt Q72H73); parameters: method as in PMID 39615687; conditions: GSPII-B (PilF159-302) four-helix bundle; cited from earlier work
T2 sequence (Q72H73 159-302): T1 sequence (Q72H73 159-302 Q190E)

PilF159-302 WT [4] = biological target: T2, PilF159-302 WT; experiment: ITC c-di-GMP binding to wild-type GSPII-B domain; conditions: for -TΔS / Kd / ΔG / ΔH: 20 °C
Text: as §1, §2

PilF159-302 Q218E [5] = biological target: T3, PilF159-302 Q218E (Thermus thermophilus, UniProt Q72H73, Q218E); parameters: method as in PMID 39615687; conditions: in vitro, pH 7.5; cited from earlier work
T3 sequence (Q72H73 159-302 Q218E): T1 sequence (Q72H73 159-302 Q190E)

[6] = system: GSPII-B domain Q190E Q218E double mutant; parameters: method as in PMID 39615687; conditions: in vitro, pH 7.5; cited from earlier work
PilF159-302 Q218E [7] = biological target: T3, PilF159-302 Q218E; experiment: ITC c-di-GMP binding to Q218E mutant, pH series; conditions: 20 °C
Text: as §1, §2

Compound `Nc1nc2c(ncn2C2OC3COP(=O)(O)OC4C(COP(=O)(O)OC3C2O)OC(n2cnc3c(=O)[nH]c(N)nc32)C4O)c(=O)[nH]1` (stereo not shown) [c-di-GMP] has an N (PilF159-302 Q190E [1]) of 0.86 ± 0.09, a ΔG (PilF159-302 Q190E [1]) of -8.18 ± 0.03 kcal/mol and a ΔH (PilF159-302 Q190E [1]) of -5.66 ± 0.17 kcal/mol. For the same compound, the “c-di-GMP binding affinity of subdomain relative to full-length domain” value (PilF159-221) was “comparable”, the “c-di-GMP binding affinity relative to WT” value (PilF159-302 Q190E [2]) was “significantly reduced affinity” and the Kd (PilF159-302 WT [3]) was ~6 nM. For the same compound, the “c-di-GMP binding affinity, pH dependence” value (PilF159-302 WT [4]; ITC, pH 4.0 versus pH 8.5) was “similar”, the “-TΔS” value (PilF159-302 WT [4]; Na-Acetate, pH 4.0) was -4.81 kcal/mol and the Kd (PilF159-302 WT [4]; Na-Acetate, pH 4.0) was 4 nM. The ΔG (PilF159-302 WT [4]; Na-Acetate, pH 4.0) was -11.26 kcal/mol, the ΔH (PilF159-302 WT [4]; Na-Acetate, pH 4.0) was -6.45 kcal/mol and the “-TΔS” value (PilF159-302 WT [4]; Tris, pH 8.5) was 0.63 kcal/mol. The Kd (PilF159-302 WT [4]; Tris, pH 8.5) was 9 nM, the ΔG (PilF159-302 WT [4]; Tris, pH 8.5) was -10.78 kcal/mol and the ΔH (PilF159-302 WT [4]; Tris, pH 8.5) was -11.41 kcal/mol. For the same compound, the “c-di-GMP binding affinity relative to WT” value (PilF159-302 Q218E [5]) was “significantly reduced affinity”, the c-di-GMP binding [6] was “did not bind” and the “-TΔS” value (PilF159-302 Q218E [7]; Bis-Tris, pH 6.0) was -2.23 ± 0.80 kcal/mol. It also gave a Kd (PilF159-302 Q218E [7]; Bis-Tris, pH 6.0) of 64 ± 7 nM, an N (PilF159-302 Q218E [7]; Bis-Tris, pH 6.0) of 1.03 ± 0.23 and a ΔG (PilF159-302 Q218E [7]; Bis-Tris, pH 6.0) of -9.64 ± 0.06 kcal/mol. For the same compound, the ΔH (PilF159-302 Q218E [7]; Bis-Tris, pH 6.0) was -7.42 ± 0.75 kcal/mol, the “-TΔS” value (PilF159-302 Q218E [7]; Bis-Tris, pH 6.5) was -1.48 ± 0.23 kcal/mol and the Kd (PilF159-302 Q218E [7]; Bis-Tris, pH 6.5) was 110 ± 3 nM. It also gave an N (PilF159-302 Q218E [7]; Bis-Tris, pH 6.5) of 1.00 ± 0.27, a ΔG (PilF159-302 Q218E [7]; Bis-Tris, pH 6.5) of -9.33 ± 0.02 kcal/mol and a ΔH (PilF159-302 Q218E [7]; Bis-Tris, pH 6.5) of -7.86 ± 0.22 kcal/mol. For the same compound, the “-TΔS” value (PilF159-302 Q218E [7]; Bis-Tris, pH 7.0) was -2.05 ± 0.07 kcal/mol, the Kd (PilF159-302 Q218E [7]; Bis-Tris, pH 7.0) was 249 ± 7 nM and the N (PilF159-302 Q218E [7]; Bis-Tris, pH 7.0) was 0.90 ± 0.16. For the same compound, the ΔG (PilF159-302 Q218E [7]; Bis-Tris, pH 7.0) was -8.85 ± 0.02 kcal/mol, the ΔH (PilF159-302 Q218E [7]; Bis-Tris, pH 7.0) was -6.80 ± 0.08 kcal/mol and the Kd (PilF159-302 Q218E [7]; Na-Acetate, pH 4.0) was 23 ± 10 nM. For the same compound, the N (PilF159-302 Q218E [7]; Na-Acetate, pH 4.0) was 0.84 ± 0.07, the “-TΔS” value (PilF159-302 Q218E [7]; Na-Acetate, pH 4.5) was -2.56 ± 0.49 kcal/mol and the Kd (PilF159-302 Q218E [7]; Na-Acetate, pH 4.5) was 61 ± 7 nM. For the same compound, the N (PilF159-302 Q218E [7]; Na-Acetate, pH 4.5) was 0.90 ± 0.04, the ΔG (PilF159-302 Q218E [7]; Na-Acetate, pH 4.5) was -9.68 ± 0.07 kcal/mol and the ΔH (PilF159-302 Q218E [7]; Na-Acetate, pH 4.5) was -7.12 ± 0.44 kcal/mol. For the same compound, the “-TΔS” value (PilF159-302 Q218E [7]; Na-Acetate, pH 5.0) was -1.47 ± 0.47 kcal/mol, the Kd (PilF159-302 Q218E [7]; Na-Acetate, pH 5.0) was 36 ± 8 nM and the N (PilF159-302 Q218E [7]; Na-Acetate, pH 5.0) was 1.31 ± 0.09. The ΔG (PilF159-302 Q218E [7]; Na-Acetate, pH 5.0) was -9.99 ± 0.13 kcal/mol, the ΔH (PilF159-302 Q218E [7]; Na-Acetate, pH 5.0) was -8.53 ± 0.44 kcal/mol and the “-TΔS” value (PilF159-302 Q218E [7]; Na-Acetate, pH 5.5) was -0.40 ± 1.00 kcal/mol. It also gave a Kd (PilF159-302 Q218E [7]; Na-Acetate, pH 5.5) of 28 ± 10 nM, an N (PilF159-302 Q218E [7]; Na-Acetate, pH 5.5) of 0.97 ± 0.09 and a ΔG (PilF159-302 Q218E [7]; Na-Acetate, pH 5.5) of -10.17 ± 0.20 kcal/mol. For the same compound, the ΔH (PilF159-302 Q218E [7]; Na-Acetate, pH 5.5) was -9.78 ± 0.92 kcal/mol, the “-TΔS” value (PilF159-302 Q218E [7]; Tris, pH 7.5) was -3.22 ± 0.17 kcal/mol and the Kd (PilF159-302 Q218E [7]; Tris, pH 7.5) was 342 ± 26 nM. For the same compound, the N (PilF159-302 Q218E [7]; Tris, pH 7.5) was 0.92 ± 0.07, the ΔG (PilF159-302 Q218E [7]; Tris, pH 7.5) was -8.67 ± 0.04 kcal/mol and the ΔH (PilF159-302 Q218E [7]; Tris, pH 7.5) was -5.45 ± 0.13 kcal/mol. The “-TΔS” value (PilF159-302 Q218E [7]; Tris, pH 8.0) was 0.99 ± 0.27 kcal/mol, the Kd (PilF159-302 Q218E [7]; Tris, pH 8.0) was 432 ± 25 nM and the N (PilF159-302 Q218E [7]; Tris, pH 8.0) was 1.12 ± 0.05. For the same compound, the ΔG (PilF159-302 Q218E [7]; Tris, pH 8.0) was -8.53 ± 0.03 kcal/mol, the ΔH (PilF159-302 Q218E [7]; Tris, pH 8.0) was -9.52 ± 0.31 kcal/mol and the “-TΔS” value (PilF159-302 Q218E [7]; Tris, pH 8.5) was 2.15 ± 0.18 kcal/mol. It also gave a Kd (PilF159-302 Q218E [7]; Tris, pH 8.5) of 463 ± 13 nM, an N (PilF159-302 Q218E [7]; Tris, pH 8.5) of 0.73 ± 0.14 and a ΔG (PilF159-302 Q218E [7]; Tris, pH 8.5) of -8.49 ± 0.02 kcal/mol. It also gave a ΔH (PilF159-302 Q218E [7]; Tris, pH 8.5) of -10.65 ± 0.16 kcal/mol.

Source: article PMC12207366, “Protonated Glutamate and Aspartate Side Chains Can Recognize Phosphodiester Groups via Strong and Short Hydrogen Bonds in Biomacromolecular Complexes” (Angewandte Chemie (International Ed. in English), 2025)
